According to ChEMBL document CHEMBL3102695, “New melatonin (MT1/MT2) ligands: design and synthesis of (8,9-dihydro-7H-furo[3,2-f]chromen-1-yl) derivatives” (Bioorg Med Chem, 2014):
pEC50, pKi: −log10 of the molar value. The source made the active and inactive calls. No cut-off for these calls is given here.

How the values were obtained:
[1] = Displacement of 2-[I]iodomelatonin from human melatonin MT1 receptor after 120 mins
[2] = Displacement of 2-[I]iodomelatonin from human melatonin MT2 receptor after 120 mins
[3] = Intrinsic activity at human melatonin MT1 receptor expressed in CHO cells assessed as [35S]GTPgammaS binding after 1 hr relative to melatonin; format: functional
[4] = Intrinsic activity at human melatonin MT2 receptor expressed in CHO cells assessed as [35S]GTPgammaS binding after 1 hr relative to melatonin; format: functional
[5] = Intrinsic activity at human melatonin MT1 receptor expressed in CHO cells assessed as [35S]GTPgammaS binding after 1 hr; format: functional, cell-based
[6] = Intrinsic activity at human melatonin MT2 receptor expressed in CHO cells assessed as [35S]GTPgammaS binding after 1 hr; format: functional, cell-based
[7] = test system: Mus musculus; experiment: Anxiolytic activity in C3H/he mouse assessed as increase in time spent in light box at 10 to 40 mg/kg, po by light/dark box test; format: functional, organism-based
[8] = test system: Mus musculus; experiment: Increase of resynchronization of activity rhythm in C3H/he mouse at 20 mg/kg, ip; format: functional; details: route intraperitoneal
[9] = test system: Rattus norvegicus; experiment: Decrease of anticipation of social defeat in rat assessed as reduction of duration of immobility and vocalization at 40 mg/kg, ip; format: functional, organism-based; parameters: dose 40 mg/kg
[10] = test system: Mus musculus; experiment: Anxiolytic activity in C3H/he mouse assessed as increase in number of transitions at 10 to 40 mg/kg, po by light/dark box test; format: functional, organism-based
[11] = test system: Mus musculus; experiment: Increase of neophobia in C3H/he mouse assessed as time spent in unfamiliar compartment at 1 to 25 mg/kg, po; format: functional, organism-based
[12] = test system: Mus musculus; experiment: Increase of neophobia in C3H/he mouse assessed as time spent in unfamiliar compartment at 1 to 10 mg/kg, po; format: functional, organism-based
[13] = test system: Mus musculus; experiment: Anxiolytic activity in C3H/he mouse assessed as increase in number of transitions at 20 to 40 mg/kg, po by light/dark box test; format: functional, organism-based
[14] = test system: Mus musculus; experiment: Anxiolytic activity in C3H/he mouse assessed as increase in time spent in light box at 20 to 40 mg/kg, po by light/dark box test; format: functional, organism-based

Row | pKi [1] | pKi [2] | pEC50 [5] | pEC50 [6] | SMILES | Emax [3] | Emax [4] | other results
1 | 7.36 | 7.40 | – | – | CC(=O)NCCc1coc2cc(C(=O)c3ccccc3)c3c(c12)CCCO3 | – | – | –
2 | 8.25 | 8.13 | 6.84 | 7.42 | S=C(NCCc1coc2ccc3c(c12)CCCO3)NC1CC1 | 42% | 46% | –
3 | 10.15 | 10.10 | 9.70 | 10.00 | O=C(CI)NCCc1coc2ccc3c(c12)CCCO3 | 121% | 78% | –
4 | 7.30 | 7.64 | – | – | CCCCNC(=O)NCCc1coc2ccc3c(c12)CCCO3 | – | – | –
5 | 8.89 | 9.13 | – | – | CCCNC(=O)NCCc1coc2ccc3c(c12)CCCO3 | – | – | –
6 | 7.46 | 7.10 | 6.34 | 6.83 | COc1cccc(C(=O)c2cc3occ(CCNC(C)=O)c3c3c2OCCC3)c1 | 56% | 58% | –
7 | 10.40 | 9.85 | 9.92 | 10.15 | CC(=O)NCCc1c(-c2ccccc2)oc2ccc3c(c12)CCCO3 | 107% | 104% | –
8 | 7.85 | 7.89 | < 5.00 | < 5.00 | CC(=O)N(C)CCc1coc2ccc3c(c12)CCCO3 | – | – | –
9 | 8.89 | 8.59 | 7.21 | 7.85 | C/C=C/C(=O)NCCc1coc2ccc3c(c12)CCCO3 | 92% | 65% | –
10 | 9.01 | 10.00 | – | – | CCCC(=O)c1oc2ccc3c(c2c1CCNC(C)=O)CCCO3 | – | – | –
11 | 5.27 | 5.41 | – | – | COc1ccc(C(=O)c2cc3occ(CCNC(C)=O)c3c3c2OCCC3)cc1 | – | – | –
12 | 9.96 | 9.42 | 7.89 | 7.29 | C=CC(=O)NCCc1coc2ccc3c(c12)CCCO3 | 80% | 74% | –
13 | 9.80 | – | 8.26 | 9.15 | COc1ccc2occ(CCNC(C)=O)c2c1 | 118% | 101% | –
14 | 10.52 | 9.92 | 9.82 | 10.10 | C=CCc1oc2ccc3c(c2c1CCNC(C)=O)CCCO3 | 104% | 109% | –
15 | 10.15 | 10.10 | 8.60 | 8.82 | C=CCC(=O)NCCc1coc2ccc3c(c12)CCCO3 | 68% | 57% | –
16 | 9.51 | 9.23 | 9.10 | 9.72 | CC(=O)NCCc1coc2ccc3c(c12)CCCO3 | 98% | 68% | Activity [7]: Active; Activity [8]: 30%; Activity [9]: Active; Activity [10]: Active; Activity [11]: Active
17 | 6.49 | 8.59 | < 5.00 | 7.80 | CC(=O)NCCc1c(C(=O)c2cccc(C(F)(F)F)c2)oc2ccc3c(c12)CCCO3 | – | 44% | –
18 | 6.08 | – | – | – | COc1ccccc1C(=O)c1cc2occ(CCNC(C)=O)c2c2c1OCCC2 | – | – | –
19 | 6.98 | 8.57 | – | – | COc1ccc(C(=O)c2oc3ccc4c(c3c2CCNC(C)=O)CCCO4)cc1 | – | – | –
20 | 8.05 | 7.89 | – | – | CC(=O)NCCc1coc2cc(Cc3cccc(C(F)(F)F)c3)c3c(c12)CCCO3 | – | – | –
21 | 8.27 | 8.36 | – | – | CCCNC(=S)NCCc1coc2ccc3c(c12)CCCO3 | – | – | –
22 | 8.66 | 9.17 | 8.07 | 9.52 | CC(=O)NCCc1c(-c2cccc(CO)c2)oc2ccc3c(c12)CCCO3 | 32% | 67% | –
23 | 9.64 | – | 8.77 | 9.40 | COc1ccc2[nH]cc(CCNC(C)=O)c2c1 [MELATONIN] | – | – | Activity [12]: Active; Activity [13]: Active; Activity [14]: Active
24 | 10.30 | 9.70 | 10.10 | 9.68 | C=Cc1oc2ccc3c(c2c1CCNC(C)=O)CCCO3 | 113% | 120% | –
25 | 7.28 | 7.89 | – | – | COc1ccccc1C(=O)c1oc2ccc3c(c2c1CCNC(C)=O)CCCO3 | – | – | –
26 | 6.89 | 9.08 | – | – | COc1cccc(C(=O)c2oc3ccc4c(c3c2CCNC(C)=O)CCCO4)c1 | – | – | –
27 | 7.64 | 7.34 | – | – | CCCCNC(=S)NCCc1coc2ccc3c(c12)CCCO3 | – | – | –
28 | 9.48 | 9.52 | 8.74 | 9.70 | COc1cccc(-c2oc3ccc4c(c3c2CCNC(C)=O)CCCO4)c1 | 30% | 68% | –
29 | 7.47 | 7.54 | – | – | CC(=O)NCCc1coc2cc(C(=O)c3cccc(C(F)(F)F)c3)c3c(c12)CCCO3 | – | – | –
30 | 9.06 | 9.68 | 8.34 | 9.68 | CC(=O)NCCc1c(-c2cccc(O)c2)oc2ccc3c(c12)CCCO3 | 46% | 93% | –
